Measurements reported in ChEMBL document CHEMBL4602613, “Early identification of promiscuous attributes of aldose reductase inhibitors using a DMSO-perturbation assay” (Bioorg Med Chem Lett, 2020).

Experiments:
[1] = target: T1, Aldo-keto reductase family 1 member B1 (Homo sapiens, UniProt P15121); experiment: Inhibition of human recombinant AKR1B1 assessed as D,L-glyceraldehyde reduction at 100 uM incubated in sodium phosphate buffer at pH 6.2 in presence of NADPH relative to control
[2] = target: T2, Aldo-keto reductase family 1 member B10 (Homo sapiens, UniProt O60218); experiment: Inhibition of AKR1B10 (unknown origin) pretreated with 0.25M DMSO followed by compound treatment by DMSO-perturbation assay
T2 sequence (O60218 whole entry): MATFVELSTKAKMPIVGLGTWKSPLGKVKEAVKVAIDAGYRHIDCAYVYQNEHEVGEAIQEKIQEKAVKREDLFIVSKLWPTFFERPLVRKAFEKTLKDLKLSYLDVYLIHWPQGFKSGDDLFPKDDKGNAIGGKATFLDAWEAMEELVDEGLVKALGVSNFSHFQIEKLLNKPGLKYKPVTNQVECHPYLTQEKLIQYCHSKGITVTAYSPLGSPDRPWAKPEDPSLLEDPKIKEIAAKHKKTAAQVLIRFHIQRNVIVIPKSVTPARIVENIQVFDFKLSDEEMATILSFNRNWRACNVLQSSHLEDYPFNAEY

[3] = target: T2, Aldo-keto reductase family 1 member B10; experiment: Inhibition of AKR1B10 (unknown origin) pretreated with 0.42M DMSO followed by compound treatment by DMSO-perturbation assay
[4] = target: T1, Aldo-keto reductase family 1 member B1; experiment: Inhibition of human recombinant AKR1B1 assessed as D,L-glyceraldehyde reduction incubated in sodium phosphate buffer at pH 6.2 in presence of NADPH
[5] = target: T1, Aldo-keto reductase family 1 member B1; experiment: Aggregation-based inhibition of human recombinant AKR1B1 assessed as D,L-glyceraldehyde reduction incubated in sodium phosphate buffer at pH 6.2 in presence of NADPH and 0.05% Triton X-100 by detergent-addition assay
[6] = target: T1, Aldo-keto reductase family 1 member B1; experiment: Aggregation-based inhibition of human recombinant AKR1B1 assessed as D,L-glyceraldehyde reduction at 300 uM incubated in sodium phosphate buffer at pH 6.2 in presence of NADPH and 0.05% Triton X-100 by detergent-addition assay
[7] = target: T1, Aldo-keto reductase family 1 member B1; experiment: Inhibition of human recombinant AKR1B1 assessed as D,L-glyceraldehyde reduction pretreated with 0.3M DMSO followed by compound addition by DMSO-perturbation assay
[8] = target: T1, Aldo-keto reductase family 1 member B1; experiment: Inhibition of human recombinant AKR1B1 assessed as D,L-glyceraldehyde reduction pretreated with 0.7M DMSO followed by compound addition by DMSO-perturbation assay
[9] = target: T1, Aldo-keto reductase family 1 member B1; experiment: Ratio of IC50 for human recombinant AKR1B1 in presence of 0.7M DMSO to IC50 for human recombinant AKR1B1 in presence of 0.3M DMSO by DMSO-perturbation assay

inhibition [1] [%] | IC50 [5] [µM] | IC50 ([4]; read-out: IC50) [µM] | SMILES | further results
12 | – | – | COc1ccc2c(c1)OC(=O)NC2(C)C(N)=O (stereo not given) | –
– | – | – | CC(/C=C1\SC(=S)N(CC(=O)O)C1=O)=C\c1ccccc1 | IC50 [2]: 0.0352 µM; IC50 [3]: 0.0393 µM
4 | – | – | CCCCC[C@H](O)CC(=O)CCc1ccc(O)c(OC)c1 [GINGEROL] | IC50 [4]: Not Active
39 | 319 | 160 | CC1(CCc2ccccc2)NC(=O)NC1=O (stereo not given) | –
31 | 433 | 295 | COc1ccc(C2(C)NC(=O)NC2=O)c(O)c1 (stereo not given) | –
56 | 114 | 80.1 | O=C1NC(=O)C2(CCCc3ccccc32)N1 (stereo not given) | –
3 | – | – | CC(=O)CC[C@@H]1[C@H]2CC(=C(C)C)C(=O)C[C@@]12C | –
19 | – | – | CCCC1NC(=O)NC1=O (stereo not given) | –
34 | – | – | O=C1NC(=O)C(c2ccccc2)N1 (stereo not given) | –
45 | – | 126 | CCCCCCCCC[C@H](O)CC(=O)CCc1ccc(O)c(OC)c1 | inhibition [6]: < 50%
71 | 47.9 | 40.6 | O=C1NC(=O)C(c2ccccc2)(c2ccc(O)cc2)N1 (stereo not given) | IC50 [7]: 40.6 µM; IC50 [8]: 64.2 µM
56 | 71.9 | 65.6 | Cn1cnc2c1c(=O)n(CCCCC1(C)NC(=O)NC1=O)c(=O)n2C (stereo not given) | IC50 [7]: 65.6 µM; Ratio IC50 [9]: 2.7; IC50 [8]: 178 µM
30 | 453 | 291 | CC(C)=C1C[C@@H]2[C@@H](CCC3(C)NC(=O)NC3=O)[C@]2(C)CC1=O (stereo not given in full) | –
2 | – | – | COc1ccc(C(C)=O)c(O)c1 | –
